# Publication PMC12048553, “Labels as a feature: Network homophily for systematically annotating human GPCR drug-target interactions” (Nature Communications, 2025)
# Target: CHRM3 (Homo sapiens, UniProt P20309)
# Test: yeast-expressed receptor NanoLuc screen at […], |Z-score| […]
# Format: cell-based
# CHRM3, sequence (P20309 whole entry): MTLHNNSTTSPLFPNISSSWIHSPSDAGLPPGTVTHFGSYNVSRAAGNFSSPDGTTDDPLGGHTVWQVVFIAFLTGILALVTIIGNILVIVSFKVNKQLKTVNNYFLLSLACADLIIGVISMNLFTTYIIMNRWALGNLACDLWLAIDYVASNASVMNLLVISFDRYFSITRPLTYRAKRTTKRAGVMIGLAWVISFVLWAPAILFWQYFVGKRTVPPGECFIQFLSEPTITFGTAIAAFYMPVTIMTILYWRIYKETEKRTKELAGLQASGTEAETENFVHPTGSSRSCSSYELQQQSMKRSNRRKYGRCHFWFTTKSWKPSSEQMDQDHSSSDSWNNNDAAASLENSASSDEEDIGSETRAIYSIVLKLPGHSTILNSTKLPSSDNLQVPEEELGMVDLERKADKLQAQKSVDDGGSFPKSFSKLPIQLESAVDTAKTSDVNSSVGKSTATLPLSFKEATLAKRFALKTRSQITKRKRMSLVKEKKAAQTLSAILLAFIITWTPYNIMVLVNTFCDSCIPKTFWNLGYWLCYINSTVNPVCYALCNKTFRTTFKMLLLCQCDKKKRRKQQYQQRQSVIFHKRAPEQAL
compound,measurement,value
CC(C)OC(=O)CCC/C=C\C[C@@H]1[C@@H](CC[C@@H](O)CCc2ccccc2)[C@H](O)C[C@@H]1O [Latanoprost],"yeast-expressed receptor NanoLuc screen at 10 uM, |Z-score| > 3",Latanoprost for mitigating increased intraoccular pressure may be partially explained by the observed interaction with CHRM3
